Test results taken from paper PMC10255569, “Discovery of Peptidic Ligands against the SARS-CoV-2 Spike Protein and Their Use in the Development of a Highly Sensitive Personal Use Colorimetric COVID-19 Biosensor” (ACS Sensors, 2023).
Entries after “also recorded” stand apart in the source; their conditions may differ. Non-standard residues stand in square brackets, D forms with d. Residues, ends and D or L forms follow the SMILES beside them. *: point of attachment. Biotin = O=C1N[C@H]2[C@H](CS[C@H]2CCCCC(=O)*)N1; Phe(3,5-F2) = N[C@@H](Cc1cc(F)cc(F)c1)C(=O)O; hCit = NC(=O)NCCCC[C@H](N)C(=O)O; Aad = N[C@@H](CCCC(=O)O)C(=O)O; Nva = CCC[C@H](N)C(=O)O; AEEA = NCCOCCOCC(=O)O

Target: Delta-variant SARS-CoV-2 spike protein receptor-binding domain (L452R, T478K) (Severe acute respiratory syndrome coronavirus 2, UniProt P0DTC2, L452R/T478K)
Set-up: species or system SARS-CoV-2 Delta variant

With `CCC[C@H](NC(=O)[C@H](CCCCNC(N)=O)NC(=O)[C@H](CCCNC(=N)N)NC(=O)[C@H](Cc1ccc(OC)cc1)NC(=O)[C@H](N)Cc1c[nH]cn1)C(=O)N[C@@H](CCCNC(=N)N)C(=O)N[C@@H](Cc1cc(F)cc(F)c1)C(=O)N[C@@H](Cc1ccccc1)C(=O)N[C@@H](CCCC(=O)O)C(=O)NCCOCCOCC(=O)NCCOCCOCC(=O)N[C@@H](CCCCNC(=O)CCCC[C@@H]1SC[C@@H]2NC(=O)N[C@@H]21)C(N)=O` [L10-2] (H-[dH]Y(Me)R[hCit][Nva]R[Phe(3,5-F2)]F[Aad][AEEA][AEEA]K(Biotin)-NH2) the RMax was 0.11 ± 0.004 and the “binding to the Delta variant of spike protein RBD (in words)” value was “able to bind to the Delta variant of spike protein RBD with similar affinity; also recorded: can bind to S-protein from the SARS-CoV-2 Delta variant”.
